Values of other authors in paper PMC13015236 (Journal of Pharmaceutical Analysis, 2025).

Assays:
[1] = patients
[2] = tested on: non-small cell lung cancer (NSCLC); settings: NSCLC patients

Row | Substance | objective response rate (ORR) [1] [%] | objective response rate (ORR) [2] [%]
1 | atezolizumab | 24 | 16.2
2 | tiragolumab | 21 | 
